Source: patent publication US20250188085A1, “COMPOSITIONS AND METHODS FOR INHIBITION OF RAS” (THERAS, INC., priority 2022, published 2025)
Read-outs that look alike come from different tables or passages of the source.

Experiments:
[1] = molecular target: T1, Avi-KRAS G12C (1-169) GppNHp/RAF1 RBD-3×FLAG (52-151) (Homo sapiens, UniProt P01116, G12C); assay: Raf1 RBD-KRAS G12C-GppNHp disruption (protein:protein interaction HTRF assay); format: biochemical
T1 construct: Avi-KRAS G12C (1-169) GppNHp/RAF1 RBD-3×FLAG (52-151)
In short: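 HTRF measuring disruption of 50 nM Avi-KRAS G12C (1-169) loaded with GppNHp binding RAF1 RBD-3×FLAG (52-151), in pH 7.5 Tris buffer with 5 mM MgCl2, 0.1% BSA, 10% DMSO. KRAS preincubated with compound 1 h, then RBD 1 h, then detection reagents 1 h, all at room temperature. Compound titration 30-0.02 μM; activity expressed as percent of DMSO control.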

[2] = molecular target: T2, GDP-loaded KRAS4b (amino acids 1-169) G12C/C118S protein (Homo sapiens, UniProt P01116, C118S/G12C); assay: Covalent cysteine 12 modification by MALDI-TOF MS, GDP-loaded KRAS G12C; format: binding; conditions: 15 minutes reaction time point
T2 construct: KRAS4b (amino acids 1-169) G12C/C118S protein; made in house
In short: (§1)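 KRAS4b 1-169 G12C/C118S loaded with GDP, GppNHp or GTP was used at 1 μM in 20 mM HEPES, 150 mM NaCl, 1 mM MgCl2, pH 7.3, and incubated with compound (5 mM DMSO stock) at room temperature in the dark. % modification at 15 min is adduct peak height over total protein peak heights by linear-mode MALDI-TOF.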

[3] = molecular target: T3, GppNHp-loaded KRAS4b (amino acids 1-169) G12C/C118S protein (Homo sapiens, UniProt P01116, C118S/G12C); assay: Covalent cysteine 12 modification by MALDI-TOF MS, GppNHp-loaded KRAS G12C; format: binding; conditions: 15 minutes reaction time point
T3 construct: KRAS4b (amino acids 1-169) G12C/C118S protein; made in house
In short: as §1

[4] = molecular target: T4, GTP-loaded KRAS4b (amino acids 1-169) G12C/C118S protein (Homo sapiens, UniProt P01116, C118S/G12C); assay: Covalent cysteine 12 modification by MALDI-TOF MS, GTP-loaded KRAS G12C; format: binding; conditions: 15 minutes reaction time point
T4 construct: KRAS4b (amino acids 1-169) G12C/C118S protein; made in house
Experimental: Reaction: 1 μM of GppNHp-, GTP-, or GDP-loaded KRAS4b (amino acids 1-169) G12C/C118S protein (produced in-house by Protein Expression Laboratory, FNLCR/Leidos Biomed) in 20 mM 4-(2-hydroxyethyl)-1-piperazineethanesulfonic acid (HEPES) buffer containing 150 mM NaCl, 1 mM MgCl2, pH 7.3 was prepared freshly before assay. Ten-μL aliquots of protein were dispensed onto low volume 384-well plate, then 375 nL DMSO, and 25 nL of tested compounds from 5 mM DMSO stocks were added to appropriate wells using ECHO 555 acoustic liquid handler (Labcyte Inc.). For each reaction/assay, three blanks were prepared by mixing 10 μL of protein solution with 400 nL DMSO. The contents of the wells were carefully mixed by aspiration, and then each plate was sealed with an adhesive cover, centrifuged at 2000 g for 1 minute, and kept in the dark at room temperature until 5 min, 15 min, 30 min, or 2 h collections.
Target pretreatment: Before each assay MALDI target (Bruker MPT 384 ground steel BC) was pre-treated by pipetting on each spot 0.75 μL of saturated sinapinic acid in acetonitrile (ACN).
Sample preparation: At collection time point, 2 μL of reaction mixtures were pipetted out into 20 μL MALDI matrix solution (saturated solution of sinapinic acid in 1:1 ACN:water solution containing 0.75% trifluoroacetic acid (TFA)) deposited on 384 well polypropylene plate. Resulting solution was mixed by aspiration, centrifuged at 2000 g for 1 minute, then 1 μL aliquots were dispensed on pre-treated MALDI target using Beckman Coulter Biomek FXP 96/384-Span-8 Laboratory Automation Workstation. Finally, the MALDI target was dried under mild vacuum to produce spots with fine crystalline structure.
Measurements: MALDI-TOF measurements were performed on a Bruker Daltonics rapiflex Tissuetyper TOF-TOF mass spectrometer using linear mode and mass range from 18.6 to 21.6 kDa. Detector gain was set to 3.3× (483 V), sample rate to 5 GS/s, real time smoothing to medium (175 MHz), laser smart beam pattern was set to: “MS Thin Layer M5”, and the laser frequency was 10000 Hz. Spectra were automatically collected using custom Auto Xecute method. Laser power was auto adjusted using fuzzy control. The peak selection range was set to be between 19000 and 21500 Da. Peak evaluation uses half width parameter set to be smaller than 40 Da for processed spectrograms (centroid peak detection; smoothed by SavitzkyGolay algorithm using 7 m/z width and 2 cycles; baseline was subtracted using median algorithm with flatness 1 and median level 0.01). Fuzzy control used Proteins/Oligonucleotides protocol with minimum half width 1/10 times above threshold. Up to 40000 satisfactory shots were collected in 10000 shot steps. Dynamic termination was implemented to finish data collection when peak signal/noise ratio was reaching value of 50.
Spectra processing: Spectra were smoothed by SavitzkyGolay algorithm using 7 m/z width and three cycles. Centroid peak detection algorithm was used with signal to noise threshold set to 6, relative intensity threshold 4%, peak width 10 m/z and median baseline subtraction using flatness of 1 and median level of 0.01. Peak intensity and area under the peak were evaluated and recorded for all peaks between 19,300 Da and 21,550 Da.
Calculation of percent modification: Percent modification was calculated as a ratio of peak height for protein modified by compound to sum of peak height of remaining protein plus peak height for protein modified by compound. If multiple modifications were observed each was calculated as a ratio of peak height for given modification versus sum of peak heights for all observed protein species. Data reported in Table 5 are from 15 minutes reaction time point.

pERK in NCI-H358 cells = assay: Cell-based pERK HTRF assay; conditions: 30 min incubation, read-out: pERK in NCI-H358 cell inhibition IC50
In short: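 Cells seeded at 4×10^4/well in RPMI with 10% FBS, then next day treated for 30 min with a 9-point, 3-fold series from 75 μM top concentration at 0.25% DMSO. Lysates were read for pERK by HTRF (d2/Eu cryptate antibodies) after 4–24 h at room temperature, emission at 615 nm.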

| IC50 [1] [nM] | GDP-KRAS G12C percent of modification [2] | GppNHp-KRAS G12C percent of modification [3] | GTP-KRAS G12C percent of modification [4] | IC50 (pERK in NCI-H358 cells) [nM] | IC50 (pERK in NCI-H358 cells; Homo sapiens, NCI-H358, 0.5 h) [nM] | Structure (SMILES) |
| --- | --- | --- | --- | --- | --- | --- |
| > 20000 | D (percent of modification <10%) | D (percent of modification <10%) | D (percent of modification <10%) | > 1000 |  | C=CC(=O)N1C[C@H](Oc2nc(OC[C@@]34CCCN3C[C@H](F)C4)nc3c(F)c(-c4ccc(F)c5sc(N)c(C#N)c45)c(C(F)(F)F)cc23)C[C@H]1COC (atropisomer, axis not shown) [Compound 90] |
| ≤ 500 | A (percent of modification ≥70%) | A (percent of modification ≥70%) | A (percent of modification ≥70%) |  | ≤ 100 | C=CC(=O)N1CC[C@@H](Oc2nc(OC[C@@]34CCCN3C[C@H](F)C4)nc3c(F)c(-c4ccc(F)c5sc(N)c(C#N)c45)c(C(F)(F)F)cc23)[C@H]1COC (atropisomer, axis not shown) [Compound 95] |
| 5000 to 20000 | D (percent of modification <10%) | D (percent of modification <10%) | D (percent of modification <10%) | 100 to 1000 |  | C=CC(=O)N1CC[C@@H](Oc2nc(OC[C@@]34CCCN3C[C@H](F)C4)nc3c(F)c(-c4ccc(F)c5sc(N)c(C#N)c45)c(C(F)(F)F)cc23)[C@H]1COC (atropisomer, axis not shown) [Compound 96] |
| ≤ 500 | A (percent of modification ≥70%) | A (percent of modification ≥70%) | A (percent of modification ≥70%) | ≤ 100 |  | C=CC(=O)N1CC[C@@H](Oc2nc(OC[C@@]34CCCN3C[C@H](F)C4)nc3c(F)c(-c4ccc(F)c5sc(N)c(C#N)c45)c(C(F)(F)F)cc23)[C@H]1C (single isomer, unassigned) [Compound 63] |
| > 20000 | D (percent of modification <10%) | D (percent of modification <10%) | D (percent of modification <10%) | > 1000 |  | C=CC(=O)N1CC[C@@H](Oc2nc(OC[C@@]34CCCN3C[C@H](F)C4)nc3c(F)c(-c4ccc(F)c5sc(N)c(C#N)c45)c(C(F)(F)F)cc23)[C@H]1C (single isomer, unassigned) [Compound 64] |
| ≤ 500 | B (50≤percent of modification <70%) | C (10%≤modification <50%) | C (10%≤modification <50%) |  | ≤ 100 | C=CC(=O)N1CCC(Oc2nc(OC[C@@]34CCCN3C[C@H](F)C4)nc3c(F)c(-c4ccc(F)c5sc(N)nc45)c(C(F)(F)F)cc23)C1(C)C (some centres unmarked) [Compound 45] |
| ≤ 500 | B (50≤percent of modification <70%) | B (50≤percent of modification <70%) | B (50≤percent of modification <70%) |  | ≤ 100 | C=CC(=O)N1CC[C@@H](Oc2nc(OC[C@@]34CCCN3C[C@H](F)C4)nc3c(F)c(-c4ccc(F)c5sc(N)c(C#N)c45)c(C(F)(F)F)cc23)C1 [Compound 46] |
| ≤ 500 | C (10%≤modification <50%) | B (50≤percent of modification <70%) | C (10%≤modification <50%) |  | ≤ 100 | C=CC(=O)N1C[C@H](Oc2nc(OC[C@@]34CCCN3C[C@H](F)C4)nc3cc(-c4ccc(F)c5sc(N)c(C#N)c45)c(C(F)(F)F)cc23)[C@@H](F)C1 [Compound 49] |
| ≤ 500 | B (50≤percent of modification <70%) | A (percent of modification ≥70%) | B (50≤percent of modification <70%) |  | ≤ 100 | C=CC(=O)N1C[C@@H](F)[C@@H](Oc2nc(OC[C@@]34CCCN3C[C@H](F)C4)nc3cc(-c4ccc(F)c5sc(N)c(C#N)c45)c(C(F)(F)F)cc23)C1 [Compound 50] |
| ≤ 500 | A (percent of modification ≥70%) | A (percent of modification ≥70%) | A (percent of modification ≥70%) |  | ≤ 100 | C=CC(=O)N1CC[C@@H](Oc2nc(OC[C@@]34CCCN3C[C@H](F)C4)nc3c(F)c(-c4ccc(F)c5sc(N)c(C#N)c45)ccc23)C1 [Compound 51] |
| 5000 to 20000 | D (percent of modification <10%) | D (percent of modification <10%) | D (percent of modification <10%) |  | > 1000 | C=CC(=O)N1CC[C@@H](Oc2nc(OC[C@@]34CCCN3C[C@H](F)C4)nc3c(F)c(-c4ccc(F)c5sc(N)c(C#N)c45)c(F)cc23)C1 [Compound 52] |
| ≤ 500 | C (10%≤modification <50%) | C (10%≤modification <50%) | D (percent of modification <10%) |  | ≤ 100 | C=CC(=O)N1CC[C@@H](Oc2nc(OC[C@@]34CCCN3C[C@H](F)C4)nc3cc(-c4ccc(F)c5sc(N)c(C#N)c45)c(C(F)(F)F)nc23)C1 [Compound 55, 4-(4-(((R)-1-acryloylpyrrolidin-3-yl)oxy)-2-(((2R,7aS)-2-fluorotetrahydro-1H-pyrrolizin-7a (5H)-yl)methoxy)-6-(trifluoromethyl)pyrido[3,2-d]pyrimidin-7-yl)-2-amino-7-fluorobenzo[b]thiophene-3-carbonitrile] |
| ≤ 500 | A (percent of modification ≥70%) | A (percent of modification ≥70%) | B (50≤percent of modification <70%) |  | ≤ 100 | C=CC(=O)N1CC[C@@H](Oc2nc(OC[C@@]34CCCN3C[C@H](F)C4)nc3c(F)c(-c4ccc(F)c5sc(N)c(C#N)c45)ncc23)C1 [Compound 56] |
